What all share (format): protein assay
Assay [1] addresses T1, Phosphodiesterase 3 (Homo sapiens, UniProt Q14432+Q13370). Put plainly: Inhibition of PDE3 at 10 uM by Biomol Green quantizyme assay system.
In assay [2] the target is T1, Phosphodiesterase 3. Put plainly: Inhibition of PDE3 at 500 uM by Biomol Green quantizyme assay system.
Assay [3] has as its target T1, Phosphodiesterase 3. Briefly: Inhibition of PDE3 by Biomol Green quantizyme assay system.
In assay [4] the target is T1, Phosphodiesterase 3. Put plainly: Inhibition of PDE3 at 1 nM by Biomol Green quantizyme assay system.
For assay [5], the target named is T1, Phosphodiesterase 3. Put plainly: Inhibition of PDE3 at 100 nmol by Biomol Green quantizyme assay system.

As for `CCOC(=O)c1cc(Cc2ccc(C)cc2)c(=O)[nH]c1C`, the inhibition against Phosphodiesterase 3 [1] was found to be 35.4%; on Phosphodiesterase 3 [2], 80.1%; at Phosphodiesterase 3 [4] it was 0%. Further, the IC50 at Phosphodiesterase 3 [3] is 172.5 µM.

Regarding `CCOC(=O)c1cc(Cc2cccc(Cl)c2)c(=O)[nH]c1-c1ccccc1`, the figures for the inhibition at Phosphodiesterase 3 [1], on Phosphodiesterase 3 [2] and at Phosphodiesterase 3 [4] were 20%, 80.9% and 0%, respectively. In addition, the half-maximal inhibitory concentration (IC50) against Phosphodiesterase 3 [3] stood at 312.4 µM.

`Cc1ccc(Cc2cc(C#N)c(C)[nH]c2=O)cc1`: the inhibition on Phosphodiesterase 3 [1] turned out to be 72.4%; against Phosphodiesterase 3 [2] it was 85.9%; at Phosphodiesterase 3 [4], 34%. The same compound returned an IC50 against Phosphodiesterase 3 [3] of 1.68 µM.

Compound `N#Cc1cc(Cc2ccc(Br)cc2)c(=O)[nH]c1-c1ccccc1` came in with an inhibition against Phosphodiesterase 3 [2] of 4.3%.

Compound `CCOC(=O)c1cc(Cc2ccc(Cl)cc2)c(=O)[nH]c1-c1ccccc1` came in with an inhibition against Phosphodiesterase 3 [2] of 1.1%.

`COC(=O)c1cc(Cc2ccccc2)c(=O)[nH]c1C`: the results for the inhibition against Phosphodiesterase 3 [5], against Phosphodiesterase 3 [2] and on Phosphodiesterase 3 [4] were 36.9%, 76.7% and 21.5%, respectively. The IC50 on Phosphodiesterase 3 [3] is 163.5 µM.

At Phosphodiesterase 3 [2], `N#Cc1cc(Cc2ccccc2)c(=O)[nH]c1-c1ccccc1` came in with an inhibition of 22.5%.

As to `CCCc1cc(C(=O)OCC)c(C)[nH]c1=O`, the inhibition came to 40% on Phosphodiesterase 3 [5], 78.2% against Phosphodiesterase 3 [2] and 6.15% against Phosphodiesterase 3 [4]. The compound also displayed an IC50 against Phosphodiesterase 3 [3] of 125.1 µM.

As for `CCOC(=O)c1cc(Cc2cccc(Cl)c2)c(=O)[nH]c1C`, the inhibition against Phosphodiesterase 3 [5] turned out to be 30.8%; against Phosphodiesterase 3 [1], 56.9%; against Phosphodiesterase 3 [2], 83.2%. The compound further came in with an IC50 on Phosphodiesterase 3 [3] of 7.49 µM.

Take `CCOC(=O)c1cc(Cc2ccc(C)cc2)c(=O)[nH]c1-c1ccccc1`: the inhibition on Phosphodiesterase 3 [2] came out at 42.2%.

With `Cc1[nH]c(=O)c(Cc2ccc(Cl)cc2Cl)cc1C#N`, the inhibition came out at 23.1% against Phosphodiesterase 3 [1], 79.5% on Phosphodiesterase 3 [2] and 0% on Phosphodiesterase 3 [4]. For the same compound, at Phosphodiesterase 3 [3], the half-maximal inhibitory concentration (IC50) worked out at 280.7 µM.

With `Cc1[nH]c(=O)c(Cc2ccc(Br)cc2)cc1C#N`, the inhibition at Phosphodiesterase 3 [2] was found to be 17.3%.

`COC(=O)c1cc(Cc2ccccc2Cl)c(=O)[nH]c1C`: the inhibition is 36.9% at Phosphodiesterase 3 [5], 87.7% against Phosphodiesterase 3 [1] and 85.8% at Phosphodiesterase 3 [2]. The compound further returned an IC50 against Phosphodiesterase 3 [3] of 2.66 µM.

On to `CCOC(=O)c1cc(Cc2ccc(Br)cc2)c(=O)[nH]c1-c1ccccc1`, for which the inhibition amounted to 21.5% on Phosphodiesterase 3 [5], 55.4% on Phosphodiesterase 3 [1] and 74.1% against Phosphodiesterase 3 [2]. The compound further displayed an IC50 against Phosphodiesterase 3 [3] of 8.47 µM.

At Phosphodiesterase 3 [2], `CCOC(=O)c1cc(Cc2ccccc2Cl)c(=O)[nH]c1C` came in with an inhibition of 53.9%.

Take `Cc1[nH]c(=O)c(C#N)cc1-c1ccncc1`: the inhibition against Phosphodiesterase 3 [1] came out at 91.7%; on Phosphodiesterase 3 [2] it was 90.6%.

Regarding `CCOC(=O)c1cc(Cc2ccc(Br)cc2)c(=O)[nH]c1C`, the values for the inhibition against Phosphodiesterase 3 [5], at Phosphodiesterase 3 [2] and against Phosphodiesterase 3 [4] were 47.7%, 79.1% and 44.6%, respectively. Moreover, the IC50 against Phosphodiesterase 3 [3] was determined as 38.5 µM.

Compound `Cc1[nH]c(=O)c(Cc2ccc(Cl)cc2)cc1C#N` came in with an inhibition against Phosphodiesterase 3 [2] of 41.2%.

Consider `CCOC(=O)c1cc(Cc2ccc(Cl)cc2)c(=O)[nH]c1C`, for which the inhibition against Phosphodiesterase 3 [2] was found to be 43%.

`Cc1[nH]c(=O)c(Cc2ccccc2Cl)cc1C#N`: the figures for the inhibition on Phosphodiesterase 3 [5], against Phosphodiesterase 3 [2] and against Phosphodiesterase 3 [4] were 7.69%, 80.4% and 0%, respectively. In addition, the IC50 on Phosphodiesterase 3 [3] came out at 423.2 µM.

As for `CCOC(=O)c1cc(Cc2ccccc2)c(=O)[nH]c1-c1ccccc1`, the inhibition against Phosphodiesterase 3 [1] was 55.4%; on Phosphodiesterase 3 [2], 83%; on Phosphodiesterase 3 [4], 33.9%. At Phosphodiesterase 3 [3], this compound had an IC50 of 7.3 µM.

For the compound `CCOC(=O)c1cc(Cc2ccccc2)c(=O)[nH]c1C`, the inhibition against Phosphodiesterase 3 [2] worked out at 42.9%.

Take `Cc1[nH]c(=O)c(Cc2ccccc2)cc1C#N`: the inhibition was found to be 38.5% against Phosphodiesterase 3 [5], 84.6% against Phosphodiesterase 3 [2] and 35.4% on Phosphodiesterase 3 [4]. On Phosphodiesterase 3 [3], this compound yielded an IC50 of 128.3 µM.

For `CCOC(=O)c1cc(Cc2ccc(Cl)cc2Cl)c(=O)[nH]c1C`, the inhibition at Phosphodiesterase 3 [5] turned out to be 30.8%; against Phosphodiesterase 3 [1] it was 35.4%; at Phosphodiesterase 3 [2] it was 78.3%. At Phosphodiesterase 3 [3], the IC50 is 172.13 µM.

For orientation: inhibition means the relative decrease from the control value, in per cent. Low values mean a weak effect, high ones a strong effect. The term IC50 denotes the point on the concentration scale where inhibition reaches its midpoint.

(Values after ChEMBL document CHEMBL2069260, “Synthesis and evaluation of novel 2-pyridone derivatives as inhibitors of phosphodiesterase3 (PDE3): a target for heart failure and platelet aggregation” (Bioorg Med Chem Lett, 2012).)
